Measured values taken from patent publication US20240368113A1, “AMIDE COMPOUND AND USE THEREOF” (Chengdu Fendi Pharmaceutical Co. Ltd., priority 2021, published 2024).

tested on: MV-4-11 cells; experiment: Inhibition of tumor cell proliferation (CellTiter-Glo); assay type: cell-based; settings: Homo sapiens, MV4-11, 72 h, read-out: IC50 of inhibitory activity of tumor cell proliferation
Protocol: MV-4-11 cells were diluted with medium (RPM1640+10% FBS+1% PS) and plated at 4000 cells/well in a white-walled clear-bottom 96-well plate. MV-4-11 cells were plated and incubated in a 5% CO2, 37° C. incubator for 2 hours. Cells were treated with the indicated concentration of compound or DMSO (control), and placed in a 5% CO2, 37° C. incubator for 72 h after dosing. After the end of the culture, equilibrate at room temperature for 30 min, add 100 μl of CellTiter-Glo® Reagent to each well, and shake the microplate shaker for 2 min. After 10 min of incubation at room temperature, the luminescence was measured by a microplate reader, and the cell-free wells were used as the background wells. CC-90009 (celegen patent phase I) was used as a control, and its structural formula was as follows: 0

In the case of `O=C(C#Cc1ccccc1OC(=O)N1CCC(N2CCCCC2)CC1)NCc1ccc2c(c1)CN(C1CCC(=O)NC1=O)C2=O` (stereo not drawn) [Compound 74], the IC50 is reported as > 0.1 µM.

same assay, conditions: Homo sapiens, MV4-11; MV-4-11 cells, 72 h, CellTiter-Glo; read-out: IC50 of inhibitory activity of tumor cell proliferation

First: Cn1ccc(C#CC(=O)NCc2ccc3c(c2)CN(C2CCC(=O)NC2=O)C3=O)n1 (stereo not drawn) [Compound 35]
Second: Cn1cnc(C#CC(=O)NCc2ccc3c(c2)CN(C2CCC(=O)NC2=O)C3=O)c1 (stereo not drawn) [Compound 33]
The IC50 of the first is lower: 0.01 to 0.1 µM for the first, > 0.1 µM for the second.

`Cn1cnc2c(C#CC(=O)NCc3ccc4c(c3)CN(C3CCC(=O)NC3=O)C4=O)cccc21` (stereo not drawn) [Compound 133] and `O=C(C#Cc1ccccc1O)NCc1ccc2c(c1)CN(C1CCC(=O)NC1=O)C2=O` (stereo not drawn) [Compound 58] fall in the same range of IC50: 0.001 to 0.01 µM for the first, 0.001 to 0.01 µM for the second.

Compared with `COc1ccc(C#CC(=O)NCc2ccc3c(c2)CN(C2CCC(=O)NC2=O)C3=O)nc1` (stereo not drawn) [Compound 30], `CCOC(=O)c1ccc(C#CC(=O)NCc2ccc3c(c2)CN(C2CCC(=O)NC2=O)C3=O)nc1` (stereo not drawn) [Compound 29] is higher in IC50: 0.001 to 0.01 µM for the first, > 0.1 µM for the second.

`O=C(C#Cc1cc(O)ccc1Cl)NCc1ccc2c(c1)CN(C1CCC(=O)NC1=O)C2=O` (stereo not drawn) [Compound 79] and `Nc1cccc(C#CC(=O)NCc2ccc3c(c2)CN(C2CCC(=O)NC2=O)C3=O)c1` (stereo not drawn) [Compound 84] fall in the same range of IC50: 0.001 to 0.01 µM for the first, 0.001 to 0.01 µM for the second.

First: O=C(C#CC1CCCCC1)NCc1ccc2c(c1)CN(C1CCC(=O)NC1=O)C2=O (stereo not drawn) [Compound 62]
Second: O=C(C#CC1CCCC1)NCc1ccc2c(c1)CN(C1CCC(=O)NC1=O)C2=O (stereo not drawn) [Compound 111]
The IC50 of the first is lower: < 0.001 µM for the first, 0.001 to 0.01 µM for the second.

`CC(=O)OCOC(=O)c1ccccc1C#CC(=O)NCc1ccc2c(c1)CN(C1CCC(=O)NC1=O)C2=O` (stereo not drawn) [Compound 96] and `CCCC(=O)OCOC(=O)c1ccccc1C#CC(=O)NCc1ccc2c(c1)CN(C1CCC(=O)NC1=O)C2=O` (stereo not drawn) [Compound 94] cannot be ordered by IC50: > 0.1 µM for the first, > 0.1 µM for the second.

Going from `O=C(C#Cc1ccc2occc2c1)NCc1ccc2c(c1)CN(C1CCC(=O)NC1=O)C2=O` (stereo not drawn) [Compound 102] to `O=C(C#Cc1ccc2ncncc2c1)NCc1ccc2c(c1)CN(C1CCC(=O)NC1=O)C2=O` (stereo not drawn) [Compound 127], the IC50 rises from < 0.001 µM to > 0.1 µM. The first is the more potent here.

Compared with `O=C(C#Cc1c(F)ccnc1F)NCc1ccc2c(c1)CN(C1CCC(=O)NC1=O)C2=O` (stereo not drawn) [Compound 68], `Cc1cc(F)c(C#CC(=O)NCc2ccc3c(c2)CN(C2CCC(=O)NC2=O)C3=O)c(F)c1` (stereo not drawn) [Compound 13] is lower in IC50: 0.01 to 0.1 µM for the first, < 0.001 µM for the second.

First: CC(C)(C)[Si](C)(C)OCC#CC(=O)NCc1ccc2c(c1)CN(C1CCC(=O)NC1=O)C2=O (stereo not drawn) [Compound 21]
Second: O=C(C#CN1CCCC1)NCc1ccc2c(c1)CN(C1CCC(=O)NC1=O)C2=O (stereo not drawn) [Compound 126]
The IC50 of the first is lower: < 0.001 µM for the first, > 0.1 µM for the second. The first is the more potent here.

`O=C(C#Cc1ccc2c(c1)OCO2)NCc1ccc2c(c1)CN(C1CCC(=O)NC1=O)C2=O` (stereo not drawn) [Compound 24] and `O=C(C#Cc1ccc2scnc2c1)NCc1ccc2c(c1)CN(C1CCC(=O)NC1=O)C2=O` (stereo not drawn) [Compound 121] cannot be ordered by IC50: < 0.001 µM for the first, < 0.001 µM for the second.

`Cc1cc(O)cc(C)c1C#CC(=O)NCc1ccc2c(c1)CN(C1CCC(=O)NC1=O)C2=O` (stereo not drawn) [Compound 105] and `CC(=O)c1ccc(C#CC(=O)NCc2ccc3c(c2)CN(C2CCC(=O)NC2=O)C3=O)cc1` (stereo not drawn) [Compound 118] fall in the same range of IC50: 0.001 to 0.01 µM for the first, 0.001 to 0.01 µM for the second.

First: CC(C)(C)OC(=O)CCC(=O)Oc1ccccc1C#CC(=O)NCc1ccc2c(c1)CN(C1CCC(=O)NC1=O)C2=O (stereo not drawn) [Compound 89]
Second: CC(C)(C)OC(=O)CCC(=O)Oc1ccc(C#CC(=O)NCc2ccc3c(c2)CN(C2CCC(=O)NC2=O)C3=O)cc1 (stereo not drawn) [Compound 87]
The IC50 of the first is lower: 0.001 to 0.01 µM for the first, 0.01 to 0.1 µM for the second.

`O=C(C#Cc1ccc(-c2ccc([N+](=O)[O-])cc2)cc1)NCc1ccc2c(c1)CN(C1CCC(=O)NC1=O)C2=O` (stereo not drawn) [Compound 55] and `O=C(C#Cc1ccc(CC(F)F)cc1)NCc1ccc2c(c1)CN(C1CCC(=O)NC1=O)C2=O` (stereo not drawn) [Compound 2] cannot be ordered by IC50: < 0.001 µM for the first, < 0.001 µM for the second.

First: CC(C)C(=O)Oc1ccccc1C#CC(=O)NCc1ccc2c(c1)CN(C1CCC(=O)NC1=O)C2=O (stereo not drawn) [Compound 73]
Second: O=C(C#Cc1ccccc1C(=O)O)NCc1ccc2c(c1)CN(C1CCC(=O)NC1=O)C2=O (stereo not drawn) [Compound 75]
The IC50 of the first is lower: 0.001 to 0.01 µM for the first, > 0.1 µM for the second. The first is the more potent here.

With `CC(C)(C)C(=O)OCOC(=O)c1ccccc1C#CC(=O)NCc1ccc2c(c1)CN(C1CCC(=O)NC1=O)C2=O` (stereo not drawn) [Compound 77] the IC50 was > 0.1 µM.
